Measurements published in patent US20220370416A1, “COMPOUNDS AND METHODS FOR TARGETED DEGRADATION OF KRAS” (Arvinas Operations, Inc., priority 2020, published 2022).

Legend:
KRAS^G12C [1] = molecular target: T1, KRAS^G12C (Homo sapiens, UniProt P01116, G12C); assay: Engagement and degradation of endogenous KRAS^G12C in NCI-H2030 cells (blot quantitation); type: cell-based; set-up: MRTX849-VHL bifunctional compounds engage and degrade endogenous KRAS^G12C in NCI-H2030 cells; endogenous in cells; host or cells: NCI-H2030
KRAS^G12C [2] = molecular target: T1, KRAS^G12C; assay: KRAS^G12C engagement and degradation by immunoblot in SW1573 cells; type: cell-based; set-up: MRTX849-VHL bifunctional compounds engage and degrade endogenous KRAS^G12C in NCI-H2030 cells; endogenous in cells; host or cells: NCI-H2030, NCI-H358, MIA PaCa-2, SW1573, NCI-H23; conditions: for KRAS, two-way ANOVA significance vs DMSO: FIG. 11
Method: NCI-H2030 (CRL-5914), MIA PaCa-2 (CRL-1420), NCI-H23 (CRL-5800), NCI-H358 (CRL-5807), and HCT-116 (CCL-247) cells were obtained from ATCC, expanded immediately, and frozen down. Vials were thawed and used within 20 passages. SW1573 cells were a gift from Arvinas and were handled in the same manner. NCI-H2030, NCI-H23, and NCI-H358 were cultured in RPMI (ATCC30-2001) supplemented with 10% FBS (Biological Industries; cat. no. S1480) and 1% Penicillin-Streptomycin (ThermoFisher; cat. no. 15140122). HCT-116 cells were maintained in high glucose DMEM (ThermoFisher; cat. no. 11965084) supplemented as above. MIA PaCa-2 cells were cultured in high glucose DMEM supplemented with 10% FBS, 2.5% horse serum (ThermoFisher; cat. no. 26050-088; lot 2109875), and 1% Penicillin-Streptomycin. SW1573 cells were maintained in DMEM/F12 Nutrient Mix with GlutaMAX supplement (ThermoFisher; cat. no. 10565018) with 10% FBS and 1% Penicillin-Streptomycin added. DPBS (ThermoFisher; cat. no. 14190250) was used to wash cells and 0.25% Trypsin-EDTA (ThermoFisher; cat. no. […]) was used to detach cells for passaging. […] The VHL ligand was generously provided by Arvinas.
Between 2.5×10^5 and 6.0×10^5 cells were seeded into 6-well plates (Corning; cat. no. 353046). The next day, media was removed and cells were treated with 2.5 μM LC-2 for 1, 2, 4, 8, 12, or 24 hours. […] For 24-hour time course experiments, cells were treated at the indicated times and concurrently lysed in RIPA buffer supplemented as described previously. For longer time course experiments and time courses in which cells were treated with LC-2 or LC-2 Epimer, cells were concurrently treated with either compound, then lysed by scraping in RIPA buffer at the indicated time points.
Cell lysates were clarified at 21000×g for 15 mins at 4° C. Protein levels were quantified using a 50:1 mixture of bicinchoninic acid solution (Millipore Sigma; cat. no. B9643) and 4% (w/v) copper(II) sulfate solution (Millipore Sigma; cat. no. C2284) incubated at 37° C. for 30 mins. Absorbance values at 560 nm were read on an EnVision 2101 Multilabel Reader (PerkinElmer). Proteins were separated using 26 well Criterion TGX precast 4-15% (cat. no. 5671085) or 8-16% (cat. no. 5671105) gradient midi gels. After separation, proteins were transferred to nitrocellulose or PVDF membranes at 76 V for 2 hours at 4° C. Blots were then blocked in 5% milk in tris-buffered saline with Tween-20 (TBST; 20 mM Tris, 150 mM NaCl, 0.02% Tween-20). After blocking, blots were incubated in primary antibody overnight (12-18 hours) at 4° C. or for 2 hours at room temperature with mild agitation at the manufacturer's indicated dilution in either 5% milk or 5% BSA in TBST. Blots were then washed thrice with TBST for 5 mins at room temperature. After washing, blots were incubated with 1:5,000-1:10,000 of donkey anti-rabbit (GE Life Sciences; NA934) or sheep anti-mouse (GE Life Sciences; NA931) secondary antibody diluted in 5% milk for 1 hour at room temperature with mild agitation. Blots were again washed thrice with TBST for 5 mins. Chemiluminescent signal was generated using Amersham ECL Prime Western Blotting Detection Reagant (GE Life Sciences; cat. no. RPN2232) or SuperSignal West Femto Maximum Sensitivity Substrate (ThermoFisher; cat. no. 34095). Images were obtained using a Bio-Rad ChemiDoc Imager. Fluorescent α-tubulin images were collected with the Bio-Rad ChemiDoc Imager using an Alexa488 filter. The primary antibodies used in this work include: KRAS (LSBio; clone 2C1; cat. no. LS-C175665), p-p42/44 MAPK (phospho T202/Y204) (pErk; Cell Signaling Technologies (CST); cat. no. 4370S or 9106S), p42/44 MAPK (Erk1/2; CST; cat. no. 4695S), alpha-tubulin (CST; 2144S), and alpha-tubulin w/AlexaFluor488 (Millipore; cat. no. 16-232).
Band intensities were quantified using BioRad's Image Lab Software. […]

| Compound | induction of KRAS^G12C degradation (KRAS^G12C [1]; 2.5 μM (FIG. 5A)) | time to near maximal engagement (KRAS^G12C [2]; SW1573, 2.5 μM) [h] | KRAS^G12C engagement and protein levels (KRAS^G12C [2]; SW1573, longer time course (FIG. 8)) | rescue of induced KRAS^G12C degradation (mechanism) (KRAS^G12C [1]; VHL ligand competition, epoxomicin, MLN924 (FIG. 5A)) | degradation of KRAS^G12C (KRAS^G12C [1]; dose response (FIG. 2C)) | maximal KRAS^G12C degradation maintained up to (KRAS^G12C [1]; time course (FIG. 6A)) [h] | time to maximal KRAS^G12C degradation (KRAS^G12C [1]; time course (FIG. 6A)) [h] | duration of KRAS degradation (KRAS^G12C [2]; SW1573, 2.5 μM) | time to maximal KRAS degradation (KRAS^G12C [2]; SW1573, 2.5 μM, 6, 24, 48, 72 hours) [h] | KRAS, two-way ANOVA significance vs DMSO (KRAS^G12C [2]; SW1573, 2.5 μM, 1 hour) | KRAS, two-way ANOVA significance vs DMSO (KRAS^G12C [2]; SW1573, 2.5 μM, 2 hours) | KRAS, two-way ANOVA significance vs DMSO (KRAS^G12C [2]; SW1573, 2.5 μM, 4 hours) | KRAS, two-way ANOVA significance vs DMSO (KRAS^G12C [2]; SW1573, 2.5 μM, 8 hours) | KRAS, two-way ANOVA significance vs DMSO (KRAS^G12C [2]; SW1573, 2.5 μM, 12 hours) | time to maximal degradation (KRAS^G12C [2]; SW1573, 2.5 μM, 24 hour time course) [h] | KRAS, two-way ANOVA significance vs DMSO (KRAS^G12C [2]; SW1573, 2.5 μM, 24 hours) | DC50 (KRAS^G12C [2]; SW1573, homozygous KRAS^G12C) [nM] | Dmax (KRAS^G12C [2]; SW1573, homozygous KRAS^G12C) [%] |
| --- | --- | --- | --- | --- | --- | --- | --- | --- | --- | --- | --- | --- | --- | --- | --- | --- | --- | --- |
| C=C(F)C(=O)N1CCN(c2nc(OC[C@@H]3CCCN3CCCOCCC(=O)N[C@H](C(=O)N3C[C@@H](O)C[C@H]3C(=O)NCc3ccc(-c4scnc4C)cc3)C(C)(C)C)nc3c2CCN(c2cccc4cccc(Cl)c24)C3)C[C@@H]1CC#N [LC-2 Epimer, (2S,4S)-1-((S)-2-(3-(3-((S)-2-(((7-(8-chloronaphthalen-1-yl)-4-((S)-3-(cyanomethyl)-4-(2-fluoroacryloyl)piperazin-1-yl)-5,6,7,8-tetrahydropyrido[3,4-d]pyrimidin-2-yl)oxy)methyl)pyrrolidin-1-yl)propoxy)propanamido)-3,3-dimethylbutanoyl)-4-hydroxy-N-(4-(4-methylthiazol-5-yl)benzyl)pyrrolidine-2-carboxamide] | does not induce KRAS^G12C degradation | 1 | fully engaged KRAS^G12C in SW1573 cells, but did not decrease protein levels | – | – | – | – | – | – | – | – | – | – | – | – | – | – | – |
| C=C(F)C(=O)N1CCN(c2nc(OC[C@@H]3CCCN3CCCOCCC(=O)N[C@H](C(=O)N3C[C@H](O)C[C@H]3C(=O)NCc3ccc(-c4scnc4C)cc3)C(C)(C)C)nc3c2CCN(c2cccc4cccc(Cl)c24)C3)C[C@@H]1CC#N [LC-2, (2S,4R)-1-((S)-2-(3-(3-((S)-2-(((7-(8-chloronaphthalen-1-yl)-4-((S)-3-(cyanomethyl)-4-(2-fluoroacryloyl)piperazin-1-yl)-5,6,7,8-tetrahydropyrido[3,4-d]pyrimidin-2-yl)oxy)methyl)pyrrolidin-1-yl)propoxy)propanamido)-3,3-dimethylbutanoyl)-4-hydroxy-N-(4-(4-methylthiazol-5-yl)benzyl)pyrrolidine-2-carboxamide] | – | – | – | rescued by VHL ligand competition, proteasome inhibition with epoxomicin (Epox), and neddylation inhibition with MLN924 (MLN) | degrades KRAS^G12C in a dose dependent manner | 24 | ≤ 8 | sustained up to 72 hours | ≤ 24 | N.S. | N.S. | N.S. | ** (** p < 0.01) | ** (** p < 0.01) | 12 | *** (*** p < 0.005) | 760 ± 300 | > 85 |
